Source: patent EP0180309B2, “Improved disinfecting and preserving solutions for contact lenses and methods of use” (priority 1984, dated 1986)

Test system: L-929 mouse fibroblast cells
Assay type: cell-based
Conditions: 10 ppm
Protocol: Comparative studies are conducted to evaluate the cytotoxicity of individual aqueous lens disinfecting and preservative solutions containing PHMB, benzalkonium chloride and chlorhexidine. The studies utilize the Agar Overlay Assay Technique published in the Journal of Pharmaceutical Sciences, Vol. 54 (1965) pp 1545-1547 by W. L. Guess et al. The technique utilized is similar to the Zone of Inhibition Method of Otten et al (Example VII), however, when the lenses are removed from the preservative solutions they are only rinsed with isotonic saline solution to remove residual preservative. The lenses are then placed on L-929 mouse fibroblast cells to ascertain the presence of any cytotoxic response or cell inflammation which is noted by a lysing of the cells.

Percent Cells Lysed: 0/0
Width of Decolorized Zone: 0/0
Structure (SMILES): [H]/N=C(\N/C(=N/[H])NCCCCCCNC(=N)NC(=N)Nc1ccc(Cl)cc1)Nc1ccc(Cl)cc1 [Chlorhexidine, chlorhexidine gluconate]
